One assay deals with SH-SY5Y cells. Put plainly: MPTP toxicity in SH-SY5Y cells, MTT assay. The class given is cell-based, human. The procedure:
SH-SY5Y, the human neuroblastoma cell line, was incubated with MPTP (750 μM) for 24 hrs.
(In general: Tetrazolium dyes change colour on reduction, which living cells bring about.)

Assay [1] has as its system cortical cells with Aβ25-35 exposure. The experiment in a line: Aβ25-35 cytotoxicity with or without NMDA receptor antagonist MK801, cell survival.
Description: Aβ25-35 (Cat. No. A4559, Sigma) was dissolved in autoclaved ddH2O to make a stock solution of 2 mM, dispensed into aliquots, and immediately stored at −80° C. until use.
In this study, the application of MK801 could reveal whether the neuroprotective effects of drugs were mediated by NMDA receptor.
Assay [2] relates to GFAP positive cells in cortical culture. Put plainly: GFAP immunocytochemistry in cortical culture after Aβ25-35. The class given is cell-based, rat. How it is done:
Cells were fixed in 4% PFA and washed in PBS, blocked with 2% bovine serum albumin (BSA) and 0.03% Triton X-100 in PBS, and then incubated with mouse monoclonal antibody against microtubule-associated protein-2 (MAP-2) (Cat. No. MAB378, 1:150, CHEMICON International, Inc., Temecula, Calif., USA); rabbit polyclonal antibody against GFAP (Cat. No. Z0334, 1:600, DakoCytomation Denmark A/S, Denmark). The goat anti-mouse IgG Alexa Fluor-conjugated secondary antibodies (1:500; Cat No. A11003, Thermo Scientific); anti-rabbit IgG Alexa Fluor-conjugated secondary antibodies (1:500; Thermo Scientific) were applied respectively to recognize the primary antibodies of the MAP-2 and GFAP.
The coverslips were observed under a digital imaging fluorescence microscope (Olympus BX61; Japan) equipped with filter sets to detect the corresponding fluorescence signals.
Glial fibrillary acidic protein (GFAP) is an intermediate filament protein expressed by cells in the CNS, and is also recognized as an astrocyte maturation marker. Upregulation of GFAP, indicating gliosis, is commonly observed after CNS lesion; therefore, expression of GFAP could be useful to understand the state of neurological diseases.

In assay [3] the test system is B6SJL-Tg(SOD1*G93A)1Gur/J mice. The experiment in a line: SOD1*G93A transgenic ALS mice: behavioral tasks, body weight, survival. The class given is in vivo, mouse. An excerpt: Disease onset of B6SJL-Tg(SOD1*G93A)1Gur/J mice occurred at around 80-90 days of age, while progressive clinical weakness followed by paralysis and death occurred by 135-140 days.
In cohort 2, the male transgenic and wild-type littermates were randomly divided into 3 groups as cohort 1: vehicle (n=5), vehicle-ALS (n=6), and drug-ALS (n=11). Disease onset occurred at around 110-120 days of age, while progressive clinical weakness followed by paralysis and death occurred at around 150-155 days.
In cohort 1, drug regimen was initiated 8 weeks after birth and continued until the end of study. […] The vehicle groups received injections of the same volume of saline.
The drug regimen for cohort 2 was the same as that for cohort 1 except the dosing was started at 10 weeks of age.
Open field is an animal behavioral task that can monitor the overall spontaneous locomotor activity. Each animal was placed in an empty test arena (60 cm×60 cm plastic boxes) for 1 hour, and its activity was assessed by VersaMax Animal Activity Monitoring System (AccuScan Instruments, Inc. Columbus Ohio, USA). Total traveling distance, number of rearing movements and rearing time were analyzed. Performance of open field was measured 1-2 times per week.
In the open field task, each animal was placed in an empty test arena (43.2 cm×21.6 cm plastic boxes) for 1 hour, and its activity was assessed by Photobeam Activity System (San Diego Instruments, USA). Total traveling and rearing activities (beam break times) were analyzed. Performance of open field was measured once per week.
Rorarod task, which requires animals to balance and walk on a rotating cylinder, is a widely used test to measure coordinated motor skills. The mice were placed on a 5-channel automatic revolving rod apparatus (PanLab/Harvard Apparatus). […] After the training sessions, motor coordination was evaluated at 16 rpm for a maximum of 5 min. […] Performance of rotarod task was measured once per week, and the longest retention time for each animal was recorded.
A metal wire mesh (0.2 cm diameter, 1 cm×1 cm wide grid) was fixed horizontally 30 cm above the table. […] The latency to fall was recorded when the animal fell, and a maximum time of 180 s was assigned for analysis. There were two sessions for each individual with a 30-min interval, and the longer time was recorded. Performance of hanging test was measured once per week.
For each animal, body weight was measured weekly starting at 10 weeks of age. […]
Date and cause of death were recorded for each mouse. Animals were closely monitored and euthanized if moribund, which was defined as the inability of mice to right themselves 30 seconds after being placed on a side, in accordance with the criteria for severe morbidity. The moribund mice were recorded as “dead”, and euthanized using carbon dioxide.

Setting [4] is: 256 mg/kg/day i.p., vs ALS mice treated with vehicle.

The structures appear in SMILES notation.

Data on 1 molecule can be found in patent US10668032B2 (SyneuRx International (Taiwan) Corp., priority 2016, dated 2020).

Regarding `O=C([O-])c1ccccc1.[Li+]` [lithium benzoate], the “cell survival improvement compared with sodium benzoate and lithium chloride” value in the assay on SH-SY5Y cells (1 mM each, MPTP 750 μM) is on record as “better performance of cell survival improvement than the other two groups”. The “dose at which the protective effect was most obvious” value in the assay with SH-SY5Y cells (0.3, 1, 3 mM tested, MPTP) was found to be 1 mM. Further, the “protective effect with or without MK801 treatment” value in assay [1] (0.5 mM, MK801 10 μM vs 0 μM) was “No obvious differences”. Besides, the “cell survival with Aβ25-35 exposure” value in assay [1] (post-treatment 0.5 mM, MK801 0 μM) is recorded as “elevate the cell survival”. Also, the “reduction of GFAP positive cells compared with LiCl” value in assay [2] (LiBen 0.5 mM vs LiCl 1 mM) is “better effect than LiCl”. The “number of GFAP positive cells after Aβ25-35 exposure” value in assay [2] (post-treatment 0.5 mM) is listed as “significantly reduced”. In addition, in assay [3] (setting [4]), the “proportion of mice surviving over time” value is “improved” and the weight change entry is on record as “improved”. For the same molecule, in assay [3] (cohort 1, female, 256 mg/kg/day i.p. from 8 weeks, about 90 to about 130 days of age, vs saline ALS mice), the “hind limb functions (number of rearing movements, rearing time; open field)” value is “significantly improved”. Besides, the “motor functions (hanging test, rotarod test, rearing activity, traveling activity)” value in assay [3] (cohort 2, male, 256 mg/kg/day i.p. from 10 weeks, about 133 to about 147 days of age, vs saline ALS mice) was “improved”.
